In experiment [1] the test system is colon adenocarcinoma (LoVo) cells. Put plainly: MTT proliferation assay, colon. The format is cell-based, Human. The following applies: Homo sapiens, Tumor Cell Colon (LoVo), 120 hours, read-out: Anti-proliferative IC-50. The procedure: (§1) Cells were maintained in various media as follows: A549, LoVo and PC-3 (Ham's F12K medium with 2 mM L-glutamine and 1.5 g/L sodium bicarbonate), MIA PaCa-2 (Dulbecco's modified Eagle's medium with 4 mM L-glutamine and 4.5 g/L glucose), U87-MG (MEM+Earle's BSS). Medium for each cell line was supplemented with 10% FBS and […] Penecillin/Streptomycin. All cells were grown in incubators set at 37° C., 5% CO2. Thiazolyl Blue Tetrazolium Bromide (MTT) based proliferation assays were performed to assess the anti-proliferative activities of the compounds on these cells. Cells were seeded in 96 well plates at a density of 750 cells/well 24 hours prior to compound treatment. The cells were incubated with varying concentrations of compounds for 120 hours. […] Drug treatment was performed in 5 replicate wells. Background absorbance was established by wells containing medium but no cells. Vehicle (DMSO) only was used as control. MTT (Sigma-Aldrich, St. Louis, Mo.) was added to each well at a final concentration of 0.5 mg/ml. Following a 2 hour incubation at 37° C., medium in the wells was replaced with 0.15 ml DMSO. The plates were agitated for 15 min using a microtiter plate shaker.

The test system of experiment [2] is prostate adenocarcinoma (PC-3) cells. As to the kind of experiment: MTT proliferation assay, prostate. Format: cell-based, Human. The settings on record: for IC50: Homo sapiens, Tumor Cell Prostate (PC-3), MTT, 120 hours, read-out: Anti-proliferative IC-50. On the procedure:
(§2) We used these methods to mine the known pharmacopeia for drugs with previously-unsuspected activity against cancer-related pathways. […] Hits from our cell-based screens were tested for antiproliferative activity in up to 5 different human tumor cell lines, as follows. First, drugs with significant activity in the cellular screen(s) were tested for their ability to block proliferation of a human tumor cell line (PC-3) at an initial concentration of 10 micromolar. For drugs with antiproliferative activity in PC-3 cells, dose-response curves to determine the IC50 for antiproliferative activity and additional tumor cell lines were tested to determine the breadth of activity. Methods for assessing the antiproliferative activity of the cell-based drug ‘hits’ are described below.
as §1
(In general: Tetrazolium assays rely on reduction of a dye to a coloured formazan, in cell work by metabolically active cells.)

In experiment [3] the test system is glioblastoma (U-87 MG) cells. Put plainly: MTT proliferation assay, glioblastoma. The settings on record: Homo sapiens, Tumor Cell Glioblastoma (U-87 MG), 120 hours, read-out: Anti-proliferative IC-50. Format: cell-based. The procedure:
as §1

Experiment [4] has as its system Ras:Raf complexes. Put plainly: Protein-fragment complementation assay H-Ras:Raf. The format is cell-based, human. The following applies: for level of the Ras:Raf complexes (intensity of the fluorescence) / subcellular location of the Ras:Raf complexes: FIG. 3E; for level of the Ras:Raf complexes (intensity of the fluorescence): compared with the vehicle alone; for subcellular location of the Ras:Raf complexes: in control cells complexes localized at the cell membrane; for Assay activity: hit in Ras/Raf assay, drugs screened at 10 micromolar. An excerpt: (§3) To construct dynamic assays for protein-protein complexes, we used a protein-fragment complementation assay strategy (PCAs) in intact human cells. (A variety of other suitable assays, and reporter options, are described in detail below.) The principle of PCA is that complementary polypeptide fragments (F[1] and F[2]) of a reporter protein or enzyme will fold into an active form only if fused to two proteins which interact and bring the complementary fragments of the reporter protein into proximity. Reconstitution of the fragments of the reporter protein generates a fluorescent signal that can be quantified in intact cells, and the amount of the signal is proportional to the amount of the protein-protein complex used in constructing the assay. Given a suitable reporter type, the subcellular location of the complex can also be measured.
(§4) Reporter fragments for PCA were generated by oligonucleotide synthesis (Blue Heron Biotechnology, Bothell, Wash.), starting with the sequence of yellow fluorescent protein (YFP). First, oligonucleotides coding for polypeptide fragments YFP[1]and YFP[2] […] Next, PCR mutagenesis was used to generate the mutant fragments IFP[1] and IFP[2]. The IFP[1] fragment corresponds to YFP[1]-(F46L, F64L, M153T) and the IFP[2] fragment corresponds to YFP[2]-(V163A, S175G). […] The YFP[1], YFP[2], IFP[1] and IFP[2] fragments were amplified by PCR to incorporate restriction sites and a linker sequence, described below, in configurations that would allow fusion of a gene of interest to either the 5′- or 3′-end of each reporter fragment. The reporter-linker fragment cassettes were subcloned into a mammalian expression vector (pcDNA3.1Z, Invitrogen) that had been modified to incorporate the replication origin (oriP) of the Epstein Barr virus (EBV). […] Additionally, these vectors still retain the SV40 origin, allowing for episomal expression in cell lines expressing the SV40 large T antigen (e.g. HEK293T, Jurkat or COS).
(§5) PCA fusion constructs were prepared for a proteins known to participate in cellular pathways that have been described in the scientific literature as being linked to cancer. The selection of protein-protein complexes used, and the rationale for their use, is provided in Table 1 and the gene identifiers for the cDNAs used in assay construction are provided in Table 2. The full coding sequence for each gene of interest was amplified by PCR from a sequence-verified full-length cDNA. Resulting PCR products were column purified (Centricon), digested with appropriate restriction enzymes to allow directional cloning, and fused in-frame to either the 5′ or 3′-end of YFP[1], YFP[2], IFP[1] or IFP[2] through a linker encoding a flexible 10 amino acid peptide (Gly.Gly.Gly.Gly.Ser)2. […] Recombinants in the host strains DH5-alpha (Invitrogen, Carlsbad, Calif.) or XL1 Blue MR (Stratagene, La Jolla, Calif.) were screened by colony PCR, and clones containing inserts of the correct size were subjected to end sequencing to confirm the presence of the gene of interest and in-frame fusion to the appropriate reporter fragment. A subset of fusion constructs were selected for full-insert sequencing by primer walking. DNAs were isolated using Qiagen MaxiPrep kits (Qiagen, Chatsworth, Calif.). PCR was used to assess the integrity of each fusion construct, by combining the appropriate gene-specific primer with a reporter-specific primer to confirm that the correct gene-fusion was present and of the correct size with no internal deletions.
(§6) HEK293 cells were maintained in MEM alpha medium (Invitrogen) supplemented with 10% FBS (Gemini Bio-Products), 1% penicillin, and 1% streptomycin, and grown in a 37° C. incubator equilibrated to 5% CO2. […] Up to 100 ng of the complementary YFP or IFP-fragment fusion vectors were co-transfected using Fugene 6 (Roche) according to the manufacturer's protocol.

In experiment [5] the test system is non-small cell lung carcinoma (A549) cells. Put plainly: MTT proliferation assay, NSCLC. Format: cell-based, Human. The following applies: Homo sapiens, Tumor Cell NSCLC (A549), 120 hours, read-out: Anti-proliferative IC-50. The procedure: as §1
Experiment [6] concerns pancreatic carcinoma (MIA PaCa-2) cells. Put plainly: MTT proliferation assay, pancreatic. Format: cell-based, Human. The following applies: Homo sapiens, Tumor Cell Pancreatic (MIA PaCa-2), 120 hours, read-out: Anti-proliferative IC-50. On the procedure: as §1
Experiment [7] has as its system CDC42:PAK4 complexes. Put plainly: Protein-fragment complementation assay CDC42:PAK4. The format is cell-based, human. The settings on record: for level of CDC42:PAK4 complexes (intensity of the fluorescence): FIG. 3F, compared with the vehicle alone.
From the text: as §3, §4, §5, §6

Experiment [8] has as its system human tumor cell lines. Put plainly: MTT proliferation assay and phase contrast images, cell line not given (FIGS. 5-10). The format is cell-based. The following applies: treated cells vs. DMSO control, cell line not named. On the procedure:
as §2
Cells were maintained in various media as follows: A549, LoVo and PC-3 (Ham's F12K medium with 2 mM L-glutamine and 1.5 g/L sodium bicarbonate), MIA PaCa-2 (Dulbecco's modified Eagle's medium with 4 mM L-glutamine and 4.5 g/L glucose), U87-MG (MEM+Earle's BSS). Medium for each cell line was supplemented with 10% FBS and […] Penecillin/Streptomycin. All cells were grown in incubators set at 37° C., 5% CO2. Thiazolyl Blue Tetrazolium Bromide (MTT) based proliferation assays were performed to assess the anti-proliferative activities of the compounds on these cells. Cells were seeded in 96 well plates at a density of 750 cells/well 24 hours prior to compound treatment. The cells were incubated with varying concentrations of compounds for 120 hours. Compound concentrations range from 0.03 to 100 microM (half log increments) except for alpha-Tomatine (0.001-100 microM, half log increments), Neriifolin (0.0002-100 microM) and Peruvoside (0.01-100 microM). Drug treatment was performed in 5 replicate wells. Background absorbance was established by wells containing medium but no cells. Vehicle (DMSO) only was used as control. MTT (Sigma-Aldrich, St. Louis, Mo.) was added to each well at a final concentration of 0.5 mg/ml. Following a 2 hour incubation at 37° C., medium in the wells was replaced with 0.15 ml DMSO. The plates were agitated for 15 min using a microtiter plate shaker. […] Mean absorbance values were calculated from 5 replicate wells of each drug treatment following subtraction of background absorbance from blank samples and plotted as a percentage of control.

Setting [9] is: hit in CDC42/PAK4 assay, drugs screened at 10 micromolar.

Structures can show the parent of a compound that is named as a salt. Where two headings read alike, the source gives them in different places.

On to `CNCCCN1c2ccccc2CCc2ccccc21` [Desipramine], for which the IC50 in experiment [1] came to 10.6 µM. The IC50 in experiment [2] was found to be 14.6 µM. Moreover, the IC50 in experiment [3] was found to be 6.9 µM. In experiment [4], the “level of the Ras:Raf complexes (intensity of the fluorescence)” value (“level of the Ras:Raf complexes” below) is on record as “decrease in the level”, the “subcellular location of the Ras:Raf complexes” value (“subcellular location” for short) is “redistribution of the complexes to an intracellular structure” and the Assay activity entry is “Ras/Raf”.
In the case of `CCCSc1ccc2nc(NC(=O)OC)[nH]c2c1` [Albendazole], the IC50 turned out to be 0.24 µM in experiment [5], 0.14 µM in experiment [1], 0.18 µM in experiment [6] and 0.3 µM in experiment [2]. In experiment [7], the Assay activity entry was “CDC42/PAK4”.
Turning to `Oc1ccc(Cl)cc1Cc1cc(Cl)ccc1O` [Dichlorophene], in experiment [4], the Assay activity result is “Ras/Raf”.
On to `CN1C[C@H](CNC(=O)OCc2ccccc2)C[C@@H]2c3cccc4c3c(cn4C)C[C@H]21` [Metergoline], for which the IC50 was 5.4 µM in experiment [5]; 6.97 µM in experiment [1]; 3.35 µM in experiment [6]; 6.19 µM in experiment [2]; 4.6 µM in experiment [3]. In addition, in experiment [7], the “level of CDC42:PAK4 complexes (intensity of the fluorescence)” value was “decrease in the level”. The Assay activity entry in experiment [7] (setting [9]) is “CDC42/PAK4”. Moreover, in experiment [4], the “level of the Ras:Raf complexes” value is reported as “decrease in the level”. Besides, the “subcellular location” value in experiment [4] is “redistribution of the complexes to an intracellular structure”.
For `C[C@H]1CC[C@]2(NC1)O[C@H]1C[C@H]3[C@@H]4CC[C@H]5C[C@@H](O[C@@H]6O[C@H](CO)[C@H](O[C@@H]7O[C@H](CO)[C@@H](O)[C@H](O[C@@H]8OC[C@@H](O)[C@H](O)[C@H]8O)[C@H]7O[C@@H]7O[C@H](CO)[C@@H](O)[C@H](O)[C@H]7O)[C@H](O)[C@H]6O)CC[C@]5(C)[C@H]4CC[C@]3(C)[C@H]1[C@@H]2C` [Tomatine], the IC50 in experiment [5] amounted to 0.092 µM; in experiment [1] it was 0.097 µM; in experiment [6] it was 0.131 µM; in experiment [2] it was 0.09 µM. For the same compound, in experiment [7] (setting [9]), the Assay activity entry is on record as “Cdc42/PAK4”.
As for `CCN(CC)CCOc1ccc(C(=C(Cl)c2ccccc2)c2ccccc2)cc1` [Clomiphene], the Assay activity entry in experiment [4] is on record as “Ras/Raf”.
With `C(=C\c1ccccc1)/CN1CCN(C(c2ccccc2)c2ccccc2)CC1` [Cinnarizine], the “cell count (phase contrast images)” value in experiment [8] was “decreased the cell count”.
With `C[n+]1cc2c3c(ccc2c2ccc4cc5c(cc4c21)OCO5)OCO3` [Sanguinarine], the IC50 is 0.78 µM in experiment [5]; 0.81 µM in experiment [1]; 0.18 µM in experiment [6]; 0.33 µM in experiment [2]; 0.34 µM in experiment [3].
Regarding `Clc1ccccc1C(c1ccccc1)(c1ccccc1)n1ccnc1` [clotrimazole], in experiment [8], the “cell count (phase contrast images)” value is recorded as “decreased the cell count”.
For the compound `CC(C)COCC(CN(Cc1ccccc1)c1ccccc1)N1CCCC1` (stereo not drawn) [Bepridil], the results for the IC50 in experiment [1], in experiment [2] and in experiment [3] were 3.68 µM, 8.69 µM and 5.75 µM, respectively. Further, the “level of CDC42:PAK4 complexes (intensity of the fluorescence)” value in experiment [7] is listed as “decrease in the level”. The Assay activity result in experiment [7] (setting [9]) is “CDC42/PAK4”.
As to `COC(=O)[C@H]1[C@H]2C[C@H]3c4[nH]c5cc(OC)ccc5c4CCN3C[C@H]2C[C@@H](OC(=O)c2cc(OC)c(OC)c(OC)c2)[C@@H]1OC` [isoreserpine], the “cell count (phase contrast images)” value in experiment [8] is recorded as “decreased the cell count”.
Turning to `CN(C)CCCN1c2ccccc2Sc2ccccc21` [Promazine], the IC50 in experiment [5] turned out to be 13.9 µM; in experiment [1], 13.9 µM; in experiment [6], 5.13 µM; in experiment [2], 13.9 µM; in experiment [3] it was 16.4 µM. Besides, the “level of the Ras:Raf complexes” value in experiment [4] is “decrease in the level”. In addition, in experiment [4], the “subcellular location” value is “redistribution of the complexes to an intracellular structure”. For the same compound, the Assay activity entry in experiment [4] was “Ras/Raf”.
With `Cc1cccc(Nc2cc(Cl)nc(SCC(=O)O)n2)c1C` [WY-14643], the “proliferation of PC-3 cells (MTT assay)” value in experiment [2] (FIG. 4, compared to the DMSO control) was “no effect on proliferation”.
Regarding `CC/C(=C(\c1ccccc1)c1ccc(OCCN(C)C)cc1)c1ccccc1` [tamoxifen citrate], in experiment [4], the “level of the Ras:Raf complexes” value is “decrease in the level” and the “subcellular location” value is on record as “redistribution of the complexes to an intracellular structure”.

For the origin of these results see patent US20060094059A1, “Methods for identifying new drug leads and new therapeutic uses for known drugs” (Odyssey Thera, Inc., priority 2004, published 2006).
